The target in data set [1] is glucagon receptor (Mus musculus, UniProt Q61606). As to the kind of experiment: Experiment for glucagon binding inhibition, mouse hepatic membrane (125I-glucagon). To be noted: male ddY mouse hepatic membrane, 125I-glucagon 50 pM, 25° C. for 30 minutes; read-out: Glucagon binding inhibitory activity IC50 (nM) Mouse. The method in brief: (§1)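 Liver membranes from male SD rats or male ddY mice were incubated with 125I-glucagon and compound for 30 min at 25 °C. Bound radioactivity was collected on filters washed with pH 7.2 Tris-HCl and counted by γ counter, in duplicate. IC50 was taken from a pseudo Hill plot.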
Sequence of glucagon receptor (Mus musculus, UniProt Q61606) (Q61606 27-485): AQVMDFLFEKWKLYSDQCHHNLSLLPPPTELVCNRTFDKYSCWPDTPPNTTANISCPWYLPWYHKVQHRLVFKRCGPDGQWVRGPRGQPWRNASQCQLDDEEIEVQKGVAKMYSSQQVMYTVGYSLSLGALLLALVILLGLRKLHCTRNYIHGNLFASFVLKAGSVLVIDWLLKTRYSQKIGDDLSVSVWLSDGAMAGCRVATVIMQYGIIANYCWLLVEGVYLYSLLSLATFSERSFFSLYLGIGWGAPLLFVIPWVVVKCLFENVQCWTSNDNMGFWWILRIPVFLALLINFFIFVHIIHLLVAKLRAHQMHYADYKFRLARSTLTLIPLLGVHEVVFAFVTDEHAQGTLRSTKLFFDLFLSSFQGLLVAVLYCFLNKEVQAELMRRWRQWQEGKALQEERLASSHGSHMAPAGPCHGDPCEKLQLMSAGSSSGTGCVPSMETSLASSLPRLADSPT

The target in data set [2] is glucagon receptor (Rattus norvegicus, UniProt P30082). As to the kind of experiment: Experiment for glucagon binding inhibition, rat hepatic membrane (125I-glucagon). Particulars: male SD rat hepatic membrane, 125I-glucagon 50 pM, 25° C. for 30 minutes; read-out: Glucagon binding inhibitory activity IC50 (nM) Rat. The method in brief:
as §1

Molecules are shown by their SMILES.

Sequence of glucagon receptor (Rattus norvegicus, UniProt P30082) (P30082 27-485): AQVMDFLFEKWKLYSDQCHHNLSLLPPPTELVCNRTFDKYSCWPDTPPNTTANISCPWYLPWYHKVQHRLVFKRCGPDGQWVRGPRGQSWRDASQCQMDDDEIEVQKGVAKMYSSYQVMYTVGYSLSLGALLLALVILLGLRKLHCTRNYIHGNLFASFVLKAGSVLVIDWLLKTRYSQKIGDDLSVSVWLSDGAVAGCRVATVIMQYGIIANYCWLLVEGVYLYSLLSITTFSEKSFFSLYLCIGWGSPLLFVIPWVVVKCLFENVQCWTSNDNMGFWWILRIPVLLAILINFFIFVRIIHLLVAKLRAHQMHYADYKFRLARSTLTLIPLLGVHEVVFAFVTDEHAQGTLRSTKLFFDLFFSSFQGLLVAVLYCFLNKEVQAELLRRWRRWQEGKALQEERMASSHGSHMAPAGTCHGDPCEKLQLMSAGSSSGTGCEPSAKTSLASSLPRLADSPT

For orientation: melting point means the temperature, or range, at which the solid turns liquid. Broadly, the IC50 is the concentration at which inhibition is half-maximal. Consider `C=C(C)COc1cccc(-c2ccoc2C(=O)NNC(=O)c2ccc(O)c([N+](=O)[O-])c2)c1` [Example 197, 3-[3-(2-Methyl-2-propenyloxy)phenyl]-2-furancarboxylic acid 2-(4-hydroxy-3-nitrobenzoyl)hydrazide], for which the melting point lay in the range of 127 to 129 °C. The 50% inhibitory concentration (IC50) on glucagon receptor [1] amounted to 56 nM. Besides, the IC50 at glucagon receptor [2] came to 37 nM.
The like results for `CC=CCOc1cccc(-c2ccoc2C(=O)NNC(=O)c2ccc(O)c([N+](=O)[O-])c2)c1` [Example 198, 3-[3-(2-Butenyloxy)phenyl]-2-furancarboxylic acid 2-(4-hydroxy-3-nitrobenzoyl)hydrazide] were, in that order, 113 to 115 °C, 20 nM and 75 nM.
The like results for `C=CCOc1cccc(-c2ccoc2C(=O)NNC(=O)c2ccc(O)c([N+](=O)[O-])c2)c1` [Example 199, 3-[3-(2-Allyloxy)phenyl]-2-furancarboxylic acid 2-(4-hydroxy-3-nitrobenzoyl)hydrazide] were, in that order, 126 to 131 °C, 75 nM and 99 nM.
In turn, `O=C(NNC(=O)c1occc1-c1cccc(OCc2cccc3ccccc23)c1)c1ccc(O)c([N+](=O)[O-])c1` [Example 203] registered a melting point of 152 to 153 °C. In addition, at glucagon receptor [1], the IC50 was 7.7 nM. For the same compound, the IC50 at glucagon receptor [2] came to 7.9 nM.
The like results for `O=C(NNC(=O)c1occc1-c1cccc(OCc2ccc3ccccc3c2)c1)c1ccc(O)c([N+](=O)[O-])c1` [Example 204] were, in that order, 198 to 199 °C, 5.4 nM and 3.6 nM.
Compound `O=C(NNC(=O)c1occc1-c1ccc2[nH]ccc2c1)c1ccc(O)c([N+](=O)[O-])c1` [Example 207] registered a melting point of 129 to 131 °C. The IC50 at glucagon receptor [1] was 9.5 nM. The half-inhibitory concentration (IC50) at glucagon receptor [2] stood at 8 nM.
Taken in the same sequence, the figures for `Cn1ccc2cc(-c3ccoc3C(=O)NNC(=O)c3ccc(O)c([N+](=O)[O-])c3)ccc21` [Example 208] were 185 to 187 °C, 270 nM and 290 nM.
Take `O=C(NNC(=O)c1occc1-c1cccc(OCCc2ccccc2)c1)c1ccc(O)c([N+](=O)[O-])c1` [Example 209, 3-(3-phenethyloxyphenyl)-2-furancarboxylic acid 2-(4-hydroxy-3-nitrobenzoyl)hydrazide]: the melting point was in the range of 90 to 94 °C. Moreover, at glucagon receptor [1], the IC50 was 35 nM. For the same compound, at glucagon receptor [2], the IC50 came to 20 nM.
The compound `O=C(NNC(=O)c1occc1-c1ccc(Cc2ccccc2)cc1)c1ccc(O)c([N+](=O)[O-])c1` [Example 210, 3-(4-benzylphenyl)-2-furancarboxylic acid 2-(4-hydroxy-3-nitrobenzoyl)hydrazide] had a melting point of 154 to 157 °C. In addition, the IC50 on glucagon receptor [1] is 7.9 nM. On glucagon receptor [2], the 50% inhibitory concentration (IC50) came out at 3.9 nM.
Taken in the same sequence, the figures for `Cc1ccc(COc2ccc(-c3ccoc3C(=O)NNC(=O)c3ccc(O)c([N+](=O)[O-])c3)cc2)cc1` [Example 211] were 184 to 185 °C, 25 nM and 8.5 nM.
Taken in the same sequence, the figures for `Cc1ccccc1COc1ccc(-c2ccoc2C(=O)NNC(=O)c2ccc(O)c([N+](=O)[O-])c2)cc1` [Example 213] were 177 to 179 °C, 80 nM and 35 nM.
Consider `Cc1cccc(COc2ccc(-c3ccoc3C(=O)NNC(=O)c3ccc(O)c([N+](=O)[O-])c3)cc2)c1` [Example 214], for which the melting point was 162 to 164 °C. Moreover, on glucagon receptor [1], the IC50 was 39 nM. Also, the IC50 at glucagon receptor [2] was determined as 49 nM.
Taken in the same sequence, the figures for `O=C(NNC(=O)c1occc1-c1ccc2ccccc2c1)c1ccc(O)c([N+](=O)[O-])c1` [Example 217] were 135 to 139 °C, 37 nM and 60 nM.
The like results for `O=C(NNC(=O)c1occc1-c1cccc(-c2ccccc2)c1)c1ccc(O)c([N+](=O)[O-])c1` [Example 218] were, in that order, 143 to 147 °C, 56 nM and 95 nM.
The like results for `O=C(NNC(=O)c1oc(Br)cc1-c1ccccc1)c1ccc(O)c([N+](=O)[O-])c1` [Example 222, 5-bromo-3-phenyl-2-furancarboxylic acid 2-(4-hydroxy-3-nitrobenzoyl)hydrazide] were, in that order, 174 to 176 °C, 42 nM and 25 nM.
For `Cc1cc(C)cc(COc2cccc(-c3ccoc3C(=O)NNC(=O)c3ccc(O)c([N+](=O)[O-])c3)c2)c1` [Example 223], the melting point lay within 178 to 180 °C. For the same compound, the IC50 on glucagon receptor [1] was determined as 26 nM. Further, at glucagon receptor [2], the IC50 was 12 nM.
`Cc1cccc(C)c1COc1cccc(-c2ccoc2C(=O)NNC(=O)c2ccc(O)c([N+](=O)[O-])c2)c1` [Example 224] returned a melting point of 100 to 101 °C. Besides, on glucagon receptor [1], the 50% inhibitory concentration (IC50) worked out at 48 nM. Moreover, the half-inhibitory concentration (IC50) at glucagon receptor [2] worked out at 27 nM.
Taken in the same sequence, the figures for `O=C(NNC(=O)c1occc1-c1cccc(Cc2ccccc2Cl)c1)c1ccc(O)c([N+](=O)[O-])c1` [Example 225] were 97 to 99 °C, 68 nM and 11 nM.
For the compound `CCOc1ccccc1Cc1cccc(-c2ccoc2C(=O)NNC(=O)c2ccc(O)c([N+](=O)[O-])c2)c1` [Example 226], the melting point was in the range of 87 to 89 °C. In addition, the IC50 on glucagon receptor [1] turned out to be 31 nM. For the same compound, the IC50 at glucagon receptor [2] is 21 nM.
Taken in the same sequence, the figures for `Cc1ccccc1Cc1cccc(-c2ccoc2C(=O)NNC(=O)c2ccc(O)c([N+](=O)[O-])c2)c1` [Example 229] were 135 to 138 °C, 58 nM and 28 nM.
The like results for `CC(c1ccccc1)c1cccc(-c2ccoc2C(=O)NNC(=O)c2ccc(O)c([N+](=O)[O-])c2)c1` (stereo not drawn) [Example 230] were, in that order, 147 to 149 °C, 120 nM and 33 nM.
Compound `O=C(NNC(=O)c1occc1-c1cccc(CCc2ccccc2)c1)c1ccc(O)c([N+](=O)[O-])c1` [Example 232] gave a melting point of 149 to 152 °C. The 50% inhibitory concentration (IC50) on glucagon receptor [1] was determined as 34 nM. On glucagon receptor [2], the IC50 turned out to be 38 nM.
Consider `COc1ccc(Cc2cccc(-c3ccoc3C(=O)NNC(=O)c3ccc(O)c([N+](=O)[O-])c3)c2)cc1` [Example 234], for which the melting point lay within 102 to 104 °C. Moreover, at glucagon receptor [1], the IC50 was found to be 56 nM. For the same compound, on glucagon receptor [2], the IC50 stood at 39 nM.
Taken in the same sequence, the figures for `Cc1cccc(Cc2cccc(-c3ccoc3C(=O)NNC(=O)c3ccc(O)c([N+](=O)[O-])c3)c2)c1` [Example 235] were 149 to 151 °C, 18 nM and 49 nM.
Taken in the same sequence, the figures for `Cc1ccc(-c2ccoc2C(=O)NNC(=O)c2ccc(O)c(C(F)(F)F)c2)cc1` [Example 240] were 120 to 123 °C, 180 nM and 300 nM.
Taken in the same sequence, the figures for `CCCc1ccc(-c2ccoc2C(=O)NNC(=O)c2ccc(O)c(C(F)(F)F)c2)cc1` [Example 242] were 112 to 114 °C, 180 nM and 89 nM.
For `CCCCCOc1ccc(-c2ccoc2C(=O)NNC(=O)c2ccc(O)c(F)c2)cc1` [Example 243], the melting point lay in the range of 103 to 106 °C. The IC50 on glucagon receptor [1] was determined as 290 nM. In addition, the IC50 on glucagon receptor [2] was determined as 380 nM.
The like results for `O=C(NNC(=O)c1occc1-c1ccc(OCc2ccccc2)cc1)c1ccc(O)c([N+](=O)[O-])c1` [Example 245] were, in that order, 163 to 164 °C, 64 nM and 29 nM.

The values above are taken from patent US7514452B2, “2-furancarboxylic acid hydrazides and pharmaceutical compositions containing the same” (Dainippon Pharmaceutical Co., Ltd, priority 2002, dated 2009).
